For one molecule, IC50 results are on record in publication doi:10.1101/2025.06.13.659494v2, “A cell-based degrader assessment platform facilitates discovery of functional NUDT5 PROTACs” (biorxiv, 2026).

The target in the experiment is T1, NUDT5 (purified) (Homo sapiens, UniProt Q9UKK9).
T1 construct: homodimer
Kind of experiment: enzyme-coupled malachite green assay. In kind it is biochemical. As to conditions: […] ADP-ribose, pH […] Mg acetate, […] °C.

For `COc1cc(-c2nnc(Cn3c(N4CCNCC4)nc4c3c(=O)n(C)c(=O)n4C)o2)ccc1C` [TH10184], the IC50 entry was “TH10184 showed comparable biochemical inhibition and thermal shift to TH5427”.
